According to US9394305B2, “Substituted imidazo[1,2-a]pyridine compounds as tropomyosin receptor kinase a (TrkA) inhibitors” (Dr. Reddy's Laboratories Ltd., priority 2014, dated 2016):
Where two headings read alike, the source gives them in different places.

Target: T1, TrkA kinase (Homo sapiens, UniProt P04629)
T1 construct: purchased Upstate, USA
Assay: In vitro TrkA inhibitory activity using TR-FRET assay
Type: biochemical
Settings: 5 ng TrkA, 500 μM ATP, values given as bins
Outline: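 TrkA kinase (5 ng) was preincubated 30 min at 20-35° C. with compound (1% DMSO final), then 40 nM ULight poly GT and 500 μM ATP were added for 30 min before an EDTA stop. Phosphorylation was detected by Eu anti-phosphotyrosine TR-FRET (ex 340, em 615/665 nm), and IC50 came from sigmoidal fits of 1/3 serial dilutions.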

[1] = read-out: TrkA inhibition in-vitro IC50

T1 sequence (P04629 33-796): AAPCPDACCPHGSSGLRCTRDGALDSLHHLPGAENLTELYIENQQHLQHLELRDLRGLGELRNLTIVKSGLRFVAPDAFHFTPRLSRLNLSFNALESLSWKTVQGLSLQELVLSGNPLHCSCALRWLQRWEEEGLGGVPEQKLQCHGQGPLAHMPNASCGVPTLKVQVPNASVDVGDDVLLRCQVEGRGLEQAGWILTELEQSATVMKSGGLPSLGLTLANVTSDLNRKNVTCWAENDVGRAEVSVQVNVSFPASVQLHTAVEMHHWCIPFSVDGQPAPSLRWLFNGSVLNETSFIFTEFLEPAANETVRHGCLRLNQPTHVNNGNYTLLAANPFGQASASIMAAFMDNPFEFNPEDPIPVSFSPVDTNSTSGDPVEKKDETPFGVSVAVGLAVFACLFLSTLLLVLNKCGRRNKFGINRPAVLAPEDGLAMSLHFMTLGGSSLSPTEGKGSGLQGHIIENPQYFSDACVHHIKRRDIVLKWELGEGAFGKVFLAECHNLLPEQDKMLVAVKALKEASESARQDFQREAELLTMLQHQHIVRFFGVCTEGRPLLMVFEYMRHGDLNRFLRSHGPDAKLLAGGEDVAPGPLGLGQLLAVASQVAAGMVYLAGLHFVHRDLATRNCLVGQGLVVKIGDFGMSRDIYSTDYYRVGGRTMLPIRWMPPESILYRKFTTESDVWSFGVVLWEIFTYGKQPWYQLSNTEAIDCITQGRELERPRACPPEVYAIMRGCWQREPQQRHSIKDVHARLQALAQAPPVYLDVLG

SMILES	IC50 [1] [nM]	IC50 (read-out: TrkA inhibitory activity in-vitro IC50) [nM]
CCN(C)S(=O)(=O)NC(=O)c1cnc2ccc(N3C[C@@H](F)C[C@@H]3c3cc(F)cc4c3OCCO4)cn12 [Example 68, N-(N-ethyl-N-methylsulfamoyl)-6-((2R,4S)-4-fluoro-2-(7-fluoro-2,3-dihydrobenzo[b][1,4]dioxin-5-yl)pyrrolidin-1-yl)imidazo[1,2-a]pyridine-3-carboxamide]	50 to 100	–
O=C(NS(=O)(=O)c1ccc(-n2ccnc2)nc1)c1cnc2ccc(N3CCC[C@@H]3c3cc(F)ccc3F)cn12 [Example 46, (R)-N-((6-(1H-imidazol-1-yl)pyridin-3-yl)sulfonyl)-6-(2-(2,5-difluorophenyl)pyrrolidin-1-yl)imidazo[1,2-a]pyridine-3-carboxamide]	50 to 100	–
O=C(NS(=O)(=O)c1ccc(N2CC[C@H](O)C2)nc1)c1cnc2ccc(N3CCC[C@@H]3c3cc(F)ccc3F)cn12 [Example 33, 6-((R)-2-(2,5-difluorophenyl)pyrrolidin-1-yl)-N-((6-((S)-3-hydroxypyrrolidin-1-yl)pyridin-3-yl)sulfonyl)imidazo[1,2-a]pyridine-3-carboxamide]	100 to 500	–
CC(C)(C)S(=O)(=O)NC(=O)c1cnc2ccc(N3CCCC3c3cc(F)ccc3O[C@@H]3CCOC3)cn12 (single isomer, unassigned) [Example 66]	–	1000 to 10000
COCCN(C)S(=O)(=O)NC(=O)c1cnc2ccc(N3C[C@@H](F)C[C@@H]3c3cc(F)ccc3OC3CCOCC3)cn12 [Example 89, 6-((2R,4S)-4-fluoro-2-(5-fluoro-2-((tetrahydro-2H-pyran-4-yl)oxy)phenyl)pyrrolidin-1-yl)-N—(N-(2-methoxyethyl)-N-methylsulfamoyl)imidazo[1,2-a]pyridine-3-carboxamide]	≤ 50	–
CN(c1ccccn1)S(=O)(=O)NC(=O)c1cnc2ccc(N3CCC[C@@H]3c3cc(F)ccc3OC3CCOCC3)cn12 [Example 84, (R)-6-(2-(5-fluoro-2-((tetrahydro-2H-pyran-4-yl)oxy)phenyl)pyrrolidin-1-yl)-N—(N-methyl-N-(pyridin-2-yl)sulfamoyl)imidazo[1,2-a]pyridine-3-carboxamide]	≤ 50	–
CCN(CCF)S(=O)(=O)NC(=O)c1cnc2ccc(N3CCC[C@@H]3c3cc(F)ccc3F)cn12 [Example 40, (R)-6-(2-(2,5-difluorophenyl)pyrrolidin-1-yl)-N-(N-ethyl-N-(2-fluoroethyl)sulfamoyl)imidazo[1,2-a]pyridine-3-carboxamide]	50 to 100	–
CN(c1ccn(C)n1)S(=O)(=O)NC(=O)c1cnc2ccc(N3CCC[C@@H]3c3cc(F)ccc3OC3CCOCC3)cn12 [Example 91, (R)-6-(2-(5-fluoro-2-((tetrahydro-2H-pyran-4-yl)oxy)phenyl)pyrrolidin-1-yl)-N—(N-methyl-N-(1-methyl-1H-pyrazol-3-yl)sulfamoyl)imidazo[1,2-a]pyridine-3-carboxamide]	50 to 100	–

Results, then the compound that gave them:

IC50 [1] [nM]	IC50 (read-out: TrkA inhibitory activity in-vitro IC50) [nM]	SMILES
≤ 50	–	CN(c1nncs1)S(=O)(=O)NC(=O)c1cnc2ccc(N3C[C@@H](F)C[C@@H]3c3cc(F)ccc3OC3CCOCC3)cn12 [Example 97, 6-((2R,4S)-4-fluoro-2-(5-fluoro-2-((tetrahydro-2H-pyran-4-yl)oxy)phenyl)pyrrolidin-1-yl)-N—(N-methyl-N-(1,3,4-thiadiazol-2-yl)sulfamoyl)imidazo[1,2-a]pyridine-3-carboxamide]
≤ 50	–	CCCN(C)S(=O)(=O)NC(=O)c1cnc2ccc(N3CCC[C@@H]3c3cc(F)ccc3F)cn12 [Example 37, (R)-6-(2-(2,5-difluorophenyl)pyrrolidin-1-yl)-N-(N-methyl-N-propylsulfamoyl)imidazo[1,2-a]pyridine-3-carboxamide]
≤ 50	–	CCN(C)S(=O)(=O)NC(=O)c1cnc2ccc(N3CCC[C@@H]3c3cc(F)ccc3OC)cn12 [Example 55, (R)-N-(N-ethyl-N-methylsulfamoyl)-6-(2-(5-fluoro-2-methoxyphenyl)pyrrolidin-1-yl)imidazo[1,2-a]pyridine-3-carboxamide]
